Series [1] in a line: Cytotoxicity against rat NRK 52E cells after 5 days. The series is classed as cell-based. To be noted: read-out: LC50.
The nature of series [2]: Cytotoxicity against rat K-ras transformed NRK K/1 cells after 5 days. The series is classed as cell-based. The following applies: NRK K/1, 120 h, read-out: LC50 (the source's name).
Series [3] can be described thus: Cytotoxicity against rat H-ras transformed NRK H/1.2 cells after 5 days. The series is classed as cell-based. To be noted: NRK H/1.2, 120 h, read-out: LC50 (the source's name).
Series [4] in a line: Cytotoxicity against mouse 3LL cells after 5 days. The series is classed as cell-based. To be noted: 120 h, read-out: LC50 (the source's name).
Series [5] can be described thus: Cytotoxicity against rat N-ras transformed NRK N/4.2 cells after 5 days. The class given is cell-based. The following applies: NRK N/4.2, 120 h, read-out: LC50 (the source's name).
The nature of series [6]: Differential index, LC50 for rat NRK 52E cells to LC50 for rat K-ras transformed NRK K/1 cells. The series is classed as ADME, cell-based. The following applies: NRK 52E cells versus K-ras transformed NRK K/1 cells.
Series [7] can be described thus: Differential index, LC50 for rat NRK 52E cells to LC50 for rat H-ras transformed NRK H/1.2 cells. The following applies: NRK 52E cells versus H-ras transformed NRK H/1.2 cells. The class given is ADME, cell-based.
A short description of series [8]: Differential index, LC50 for rat NRK 52E cells to LC50 for rat N-ras transformed NRK N/4.2 cells. The class given is ADME, cell-based. To be noted: NRK 52E cells versus N-ras transformed NRK N/4.2 cells.
Series [9] is described as follows: Differential index, LC50 for rat NRK 52E cells to LC50 for mouse 3LL cells. The series is classed as ADME, cell-based. To be noted: NRK 52E cells versus 3LL cells.

Regarding `COC1=CC(=O)c2ccc(C)nc2C1=O`, the CC50 at 120 h in series [1] was determined as 6.9 µM. The values for the CC50 in series [2], in series [3] and in [4] were 11.8 µM, 4.2 µM and 7.4 µM, respectively.
In the case of `CCCC(=O)NC1=CC(=O)c2ccc(-c3nc(C(=O)OC)c(C)c4c3[nH]c3ccccc34)nc2C1=O`, the CC50 at 120 h in series [1] is 0.32 µM. In addition, the CC50 was 0.33 µM in series [2], 0.4 µM in series [3], 0.42 µM in series [5] and 0.82 µM in [4]. Besides, the selectivity ratio in series [6] is 1; in series [7], 0.8; in series [8] it was 0.8; in series [9], 0.4.
Regarding `CC(=O)NC1=CC(=O)c2ccc(-c3nc(C(=O)OC4CCCCC4)cc4c3[nH]c3ccccc34)nc2C1=O`, the CC50 at 120 h in [1] stood at 0.7 µM. Besides, the CC50 was 0.4 µM in series [2], 0.69 µM in series [3], 0.7 µM in series [5] and 1 µM in [4]. Also, the selectivity ratio in series [6] is 1.7; in series [7] it was 1; in series [8], 1; in series [9], 0.7.
For `COC(=O)c1cc2c([nH]c3ccccc32)c(-c2ccc3c(n2)C(=O)C(NC(C)=O)=CC3=O)n1`, the CC50 at 120 h in [1] was determined as 0.5 µM. The CC50 came out at 0.11 µM in series [2], 0.51 µM in series [3], 0.52 µM in [5] and 0.84 µM in series [4]. Moreover, the selectivity ratio in series [6] was found to be 4.5; in series [7], 1; in [8], 1; in [9], 0.6.
`CC(C)C(=O)NC1=CC(=O)c2ccc(C=O)nc2C1=O`: the CC50 at 120 h in series [1] was greater than 3.3 µM. For the same compound, the CC50 is 2.15 µM in series [2], greater than 3.3 µM in series [3], greater than 3.3 µM in series [5] and 1 µM in series [4].
In the case of `CC(=O)NC1=CC(=O)c2nc(C)ccc2C1=O`, the CC50 at 120 h in [1] is 21.5 µM. Also, the CC50 is greater than 33 µM in [2], 20 µM in [3] and greater than 33 µM in series [4].
For the compound `COC(=O)c1nc(-c2ccc3c(n2)C(=O)C(NC(=O)CCl)=CC3=O)c2[nH]c3ccccc3c2c1C`, the CC50 at 120 h in series [1] is 0.58 µM. The CC50 in [2] turned out to be 0.79 µM; in [3], 0.58 µM; in [5] it was 0.7 µM; in [4], 2 µM. For the same compound, the selectivity ratio is 0.7 in series [6], 1 in [7], 0.8 in series [8] and 0.3 in [9].
Take `CCOC(=O)c1cc2c([nH]c3ccccc32)c(-c2ccc3c(n2)C(=O)C(NC(C)=O)=CC3=O)n1`: in series [1], the CC50 at 120 h came out at 0.3 µM. The CC50 in series [2] worked out at 0.04 µM; in [3] it was 0.36 µM; in [5], 0.2 µM; in series [4] it was 3.2 µM. Further, the selectivity ratio in [6] came to 7.5; in [7], 0.8; in [8], 0.7; in series [9], 0.1.
`CCCCOC(=O)c1cc2c([nH]c3ccccc32)c(-c2ccc3c(n2)C(=O)C(NC(=O)CCC)=CC3=O)n1` [LAV12]: the CC50 at 120 h in series [1] is 0.66 µM. Moreover, the CC50 was 0.5 µM in series [2], 0.4 µM in series [3], 0.7 µM in series [5] and 2.3 µM in [4]. For the same compound, the selectivity ratio in [6] came out at 1.3; in series [7] it was 1.6; in series [8], 0.9; in series [9] it was 0.3.
Turning to `O=Cc1ccc2c(n1)C(=O)C(NC(=O)CCl)=CC2=O`, the CC50 at 120 h in series [1] was 3.6 µM. Moreover, the CC50 in [2] amounted to 5.8 µM; in [3], 3.4 µM; in [5], 3.2 µM; in series [4], 2.1 µM.
As for `CC(=O)NC1=CC(=O)c2ccc(-c3nc(C(=O)OCCC(C)C)c(C)c4c3[nH]c3ccccc34)nc2C1=O`, in [1], the CC50 at 120 h was found to be 4.16 µM. For the same compound, the CC50 came out at 5 µM in series [2], 4.3 µM in [3], 3.89 µM in series [5] and 7.4 µM in series [4]. The selectivity ratio came out at 0.9 in series [6], 1.1 in [7], 1.2 in series [8] and 0.6 in series [9].
With `Cc1ccc2c(n1)C(=O)C(NC(=O)CCl)=CC2=O`, the CC50 at 120 h in series [1] was found to be 3.2 µM. Besides, the CC50 in series [2] was 6.6 µM; in series [3], 2.8 µM; in series [5], 3.4 µM; in series [4], 2.3 µM.
For the compound `CC(=O)NC1=CC(=O)c2cc(C)cnc2C1=O`, in series [1], the CC50 at 120 h was 1.3 µM. The values for the CC50 in series [2], in series [3] and in [4] were 1.8 µM, 1.1 µM and 1 µM, respectively.
In the case of `Cc1ccc2c(n1)C(=O)C(NC(=O)C(C)C)=CC2=O`, the CC50 at 120 h in series [1] came out at 1.5 µM. The CC50 in series [2] came out at 7.5 µM; in [3], 1.45 µM; in [5], 1.15 µM; in series [4], 0.71 µM.
Turning to `COC(=O)c1cc2c([nH]c3ccccc32)c(-c2ccc3c(n2)C(=O)C(NC(=O)C(C)C)=CC3=O)n1`, the CC50 at 120 h in series [1] amounted to 0.7 µM. Besides, the CC50 worked out at 0.5 µM in series [2], 0.66 µM in series [3], 0.64 µM in series [5] and 1.3 µM in series [4]. Also, the selectivity ratio in series [6] came to 1.4; in [7], 1.1; in series [8], 1.1; in [9] it was 0.5.
As to `CCCCOC(=O)c1cc2c([nH]c3ccccc32)c(-c2ccc3c(n2)C(=O)C(NC(=O)CCl)=CC3=O)n1`, the CC50 at 120 h in [1] is 0.96 µM. Besides, the CC50 in series [2] turned out to be 0.52 µM; in series [3] it was 0.74 µM; in [5], 1.05 µM; in series [4] it was 2.3 µM. The selectivity ratio in series [6] was found to be 1.8; in [7] it was 1.3; in series [8] it was 0.9; in series [9] it was 0.4.
`CC(=O)NC1=CC(=O)c2ccc(-c3nc(C(=O)OCCN(C)C)cc4c3[nH]c3ccccc34)nc2C1=O`: the CC50 at 120 h in [1] turned out to be 0.37 µM. For the same compound, the CC50 in [2] is 0.14 µM; in series [3], 0.24 µM; in series [5], 0.29 µM; in series [4], 0.5 µM. Moreover, the selectivity ratio in series [6] was found to be 2.6; in series [7] it was 1.5; in series [8], 1.3; in series [9], 0.7.
Regarding `NC1=CC(=O)c2ccc(C=O)nc2C1=O`, the CC50 at 120 h in [1] worked out at 2.4 µM. The CC50 in series [2] is 4.3 µM; in series [3], 2.2 µM; in series [4] it was 2.3 µM.
With `CCCC(=O)NC1=CC(=O)c2ccc(-c3nc(C(=O)OCCC(C)C)cc4c3[nH]c3ccccc34)nc2C1=O`, the CC50 at 120 h in [1] was found to be 1 µM. Also, the CC50 worked out at 0.6 µM in series [2], 0.37 µM in [3], 0.65 µM in series [5] and 2.4 µM in series [4]. Moreover, the selectivity ratio in series [6] stood at 1.6; in series [7], 2.7; in series [8], 1.5; in [9] it was 0.4.
Turning to `CCCCOC(=O)c1cc2c([nH]c3ccc(OC)cc32)c(-c2ccc3c(n2)C(=O)C(NC(C)=O)=CC3=O)n1`, the CC50 at 120 h in [1] is 2.5 µM. Moreover, the CC50 was 2.2 µM in series [2], 2.1 µM in series [3], 2.2 µM in series [5] and greater than 3.3 µM in [4]. For the same compound, the selectivity ratio in [6] was 1.1; in series [7] it was 1.2; in [8], 1.1; in series [9], less than 0.7.
For `CC(=O)NC1=CC(=O)c2ccc(-c3[nH]c(C(=O)O)cc4c5ccccc5nc3-4)nc2C1=O`, the CC50 at 120 h in series [1] came to 0.15 µM. For the same compound, the CC50 in series [2] was 0.07 µM; in series [3] it was 0.11 µM; in series [5], 0.1 µM; in [4] it was 0.4 µM. Further, the selectivity ratio in series [6] amounted to 2.1; in series [7] it was 1.4; in series [8] it was 1.5; in series [9] it was 0.4.
As to `CC(=O)NC1=CC(=O)c2ccc(C=O)nc2C1=O`, the CC50 at 120 h in series [1] came to 1.3 µM. For the same compound, the CC50 came to 2.6 µM in series [2], 2.5 µM in series [3] and 1.2 µM in [4].
The corresponding values for `CC(=O)NC1=CC(=O)c2ccc(C(=O)O)nc2C1=O` are greater than 33 µM, greater than 33 µM, greater than 31 µM and 26 µM.
The corresponding values for `Cc1ccc2c(n1)C(=O)C(NCCCCO)=CC2=O` are 10.5 µM, 13.5 µM, 10.5 µM and 3.8 µM.
The corresponding values for `Cc1ccc2c(n1)C(=O)C(N)=CC2=O` are 0.8 µM, 1.3 µM, 0.6 µM and 0.8 µM.
In the case of `CCCCCCCCOC(=O)c1cc2c([nH]c3ccccc32)c(-c2ccc3c(n2)C(=O)C(NC(=O)CCl)=CC3=O)n1`, the CC50 at 120 h in series [1] was greater than 33 µM. Further, the CC50 was 15 µM in [2], greater than 33 µM in [3], greater than 33 µM in [5] and greater than 33 µM in series [4]. Further, the results for the selectivity ratio in [6] and in series [8] were greater than 2.2 and 1, respectively.

Source of the values: ChEMBL document CHEMBL1144487 (Bioorg Med Chem, 2007).
